Data on 50 molecules can be found in US10640495B2, “Heterocycle derivatives having TrkA inhibitory activity” (Shionogi & Co., Ltd., priority 2015, dated 2020).

What is called IC50 is the midpoint of a concentration-inhibition curve.

This test has as its target human TrkA (Homo sapiens (Human), UniProt P04629). As to the kind of experiment: Human TrkA inhibition assay (Test Example 2). The format is biochemical. A digest of the protocol:
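Mobility-shift readout of phosphorylated versus unphosphorylated fluorescent peptide gave conversion ratio, normalized to DMSO and no-enzyme wells; IC50 by logistic fit of 10- or 15-point 3-fold dilutions. Conditions: 1 nmol/L enzyme, 15 min compound preincubation, then 500 μmol/L ATP plus 1.5 μmol/L peptide, 120 min, 37 °C.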

Where [1] appears, read: Table 157, human TrkA inhibition, read-out: IC50.
[2] abbreviates: human TrkA 1 nmol/L, ATP 500 μmol/L, 120 min at 37° C., read-out: IC50 values (TrkA phosphorylation inhibition).

Like-named read-outs stand apart in the source and are kept apart here. Where only a bound is given, the exact number is not on record here.

Sequence of human TrkA (P04629 440-796): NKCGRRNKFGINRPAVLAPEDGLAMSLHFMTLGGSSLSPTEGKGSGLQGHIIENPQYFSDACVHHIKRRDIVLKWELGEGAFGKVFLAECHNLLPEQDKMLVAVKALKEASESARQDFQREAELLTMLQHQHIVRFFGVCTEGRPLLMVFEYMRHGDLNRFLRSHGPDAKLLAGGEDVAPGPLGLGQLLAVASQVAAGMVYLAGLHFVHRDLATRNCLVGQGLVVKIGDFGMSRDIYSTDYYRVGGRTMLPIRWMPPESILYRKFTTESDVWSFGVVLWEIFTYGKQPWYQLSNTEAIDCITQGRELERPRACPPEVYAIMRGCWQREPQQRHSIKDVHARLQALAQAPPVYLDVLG

For the molecule `CCN1C[C@@H](NC(=O)Nc2c(C)c(OCC3CCN(C(=O)CO)CC3)nn2-c2ccccc2)[C@H](c2ccc(F)c(F)c2)O1` (racemic) [Compound I-607], the IC50 under setting [1] was under 100 nM.

As for `CCN1C[C@@H](NC(=O)Nc2c(C)c(OCC3CCN(C(=O)COC)CC3)nn2-c2ccccc2)[C@H](c2ccc(F)c(F)c2)O1` (racemic) [Compound I-608], the IC50 under setting [1] is under 100 nM.

Consider `CCN1CCC(COc2nn(-c3ccccc3)c(NC(=O)N[C@@H]3CN(CC)O[C@H]3c3ccc(F)c(F)c3)c2C)CC1` (racemic) [Compound I-609], for which, under setting [1], the IC50 was under 100 nM. Regarding `CCN1C[C@@H](NC(=O)Nc2c(C)c(OCCCN(C)C)nn2-c2ccccc2)[C@H](c2ccc(F)c(F)c2)O1` (racemic) [Compound I-610], the IC50 under setting [1] was under 100 nM. On the same count and under the same terms, under `CCN1C[C@@H](NC(=O)Nc2c(C)c(-c3ccc4nc(C(N)=O)cn4c3)nn2-c2ccccc2)[C@H](c2ccc(F)c(F)c2)O1` (racemic) [Compound I-611] stands under 100 nM. In the case of `CCN1C[C@@H](NC(=O)Nc2c(C)c(-c3cnc(C(N)=O)c(F)c3)nn2-c2ccccc2)[C@H](c2ccc(F)c(F)c2)O1` (racemic) [Compound I-612], the IC50 under setting [1] is under 100 nM. `CCN1C[C@@H](NC(=O)Nc2c(C)c(-c3cnc(C(=O)NC)c(F)c3)nn2-c2ccccc2)[C@H](c2ccc(F)c(F)c2)O1` (racemic) [Compound I-613]: the IC50 under setting [1] is under 100 nM. For the molecule `COCCN1C[C@@H](NC(=O)Nc2c(C)c(-c3cnc4nc(C)oc4c3)nn2-c2ccccc2)[C@H](c2ccnc(F)c2)O1` (racemic) [Compound I-616], the IC50 under setting [1] was under 100 nM. As to `COCCN1C[C@@H](NC(=O)Nc2c(C)c(-c3cnc(OCF)nc3)nn2-c2ccccc2)[C@H](c2ccnc(F)c2)O1` (racemic) [Compound I-620], the IC50 under setting [2] worked out at 6.8 nM. For the molecule `COc1ncc(-c2nn(-c3ccccc3)c(NC(=O)N[C@@H]3CN(CCC(F)(F)F)O[C@H]3c3ccc(F)c(F)c3)c2C)cn1` (racemic) [Compound I-621], under setting [1], the IC50 is over 1000 nM. Turning to `Cc1c(-c2cnc3c(cnn3C)c2)nn(-c2ccccc2)c1NC(=O)N[C@@H]1CN(CCC(F)(F)F)O[C@H]1c1ccc(F)c(F)c1` (racemic) [Compound I-622], the IC50 under setting [1] is over 1000 nM.

In the case of `CNC(=O)c1cc(-c2nn(-c3ccccc3)c(NC(=O)N[C@@H]3CN(CCC(F)(F)F)O[C@H]3c3ccc(F)c(F)c3)c2C)cnc1OC` (racemic) [Compound I-623], the IC50 under setting [1] is 100 to 1000 nM. Still for that read-out and setting: under `CCN1C[C@@H](NC(=O)Nc2c(C)c(-c3ccc4nccn4c3)nn2-c2ccccc2)[C@H](c2ccc(F)c(F)c2)O1` (racemic) [Compound I-624] stands under 100 nM; under `CCN1C[C@@H](NC(=O)Nc2c(C)c(-c3ccn4ccnc4c3)nn2-c2ccccc2)[C@H](c2ccc(F)c(F)c2)O1` (racemic) [Compound I-625], under 100 nM. The same measure, in the same setting: the result for `CCN1C[C@@H](NC(=O)Nc2c(C)c(-c3cnc4c(c3)OCCO4)nn2-c2ccccc2)[C@H](c2ccc(F)c(F)c2)O1` (racemic) [Compound I-626] reads under 100 nM. Regarding `CCN1C[C@@H](NC(=O)Nc2c(C)c(-c3ccc(OC)nc3)nn2-c2ccccc2)[C@H](c2ccc(F)c(F)c2)O1` (racemic) [Compound I-627], the IC50 under setting [2] worked out at 4.8 nM. For `CCN1C[C@@H](NC(=O)Nc2c(C)c(-c3cnc(N4CC(OC)C4)nc3)nn2-c2ccccc2)[C@H](c2ccc(F)c(F)c2)O1` (racemic) [Compound I-628], under setting [1], the IC50 was under 100 nM.

Regarding `Cc1c(-c2cccnc2)nn(-c2ccccc2)c1NC(=O)N[C@@H]1CN(CC(F)F)O[C@H]1c1ccc(F)c(F)c1` (racemic) [Compound I-629], under setting [1], the IC50 is under 100 nM. Turning to `Cc1c(-c2ccncc2)nn(-c2ccccc2)c1NC(=O)N[C@@H]1CN(CC(F)F)O[C@H]1c1ccc(F)c(F)c1` (racemic) [Compound I-630], the 50% inhibitory concentration (IC50) under setting [1] was under 100 nM. As to `CCN1C[C@@H](NC(=O)Nc2c(C)c(OC3CCN(C)CC3)nn2-c2ccccc2)[C@H](c2ccc(F)c(F)c2)O1` (racemic) [Compound I-631], under setting [1], the IC50 was under 100 nM. On to `CCN1C[C@@H](NC(=O)Nc2c(C)c(OC3CN(C)C3)nn2-c2ccccc2)[C@H](c2ccc(F)c(F)c2)O1` (racemic) [Compound I-632], for which the IC50 under setting [1] is 100 to 1000 nM. As for `COCCN1C[C@@H](NC(=O)Nc2c(C)c(OCC(N)=O)nn2-c2ccccc2)[C@H](c2ccnc(F)c2)O1` (racemic) [Compound I-633], the IC50 under setting [1] was under 100 nM. For the molecule `CNC(=O)COc1nn(-c2ccccc2)c(NC(=O)N[C@@H]2CN(CCOC)O[C@H]2c2ccnc(F)c2)c1C` (racemic) [Compound I-634], under setting [1], the IC50 is under 100 nM.

As to `COCCN1C[C@@H](NC(=O)Nc2c(C)c(OCC(=O)NC3CC3)nn2-c2ccccc2)[C@H](c2ccnc(F)c2)O1` (racemic) [Compound I-635], the IC50 under setting [1] was under 100 nM. Still for that read-out and setting: the result for `CCN1C[C@@H](NC(=O)Nc2c(C)c(CCN(C)C)nn2-c2ccccc2)[C@H](c2ccc(F)c(F)c2)O1` (racemic) [Compound I-642] reads 100 to 1000 nM; that for `CCN1C[C@@H](NC(=O)Nc2c(C)c(OCc3cc(=O)ccn3C)nn2-c2ccccc2)[C@H](c2ccc(F)c(F)c2)O1` (racemic) [Compound I-644], under 100 nM. Take `CCN1C[C@@H](NC(=O)Nc2c(C)c(OCC(N)=O)nn2-c2ccccc2)[C@H](c2ccc(F)c(F)c2)O1` (racemic) [Compound I-645]: the IC50 under setting [2] came to 68 nM. Consider `CCN1C[C@@H](NC(=O)Nc2c(C)c(OCC(=O)NC)nn2-c2ccccc2)[C@H](c2ccc(F)c(F)c2)O1` (racemic) [Compound I-646], for which, under setting [1], the half-inhibitory concentration (IC50) was under 100 nM. The same measure, in the same setting: under `CCN1C[C@@H](NC(=O)Nc2c(C)c(OCC(=O)N(C)C)nn2-c2ccccc2)[C@H](c2ccc(F)c(F)c2)O1` (racemic) [Compound I-647] stands under 100 nM. As to `CCN1C[C@@H](NC(=O)Nc2c(C)c(OCC(=O)NC3CC3)nn2-c2ccccc2)[C@H](c2ccc(F)c(F)c2)O1` (racemic) [Compound I-648], the half-inhibitory concentration (IC50) under setting [1] was under 100 nM. Still for that read-out and setting: under `CCN1C[C@@H](NC(=O)Nc2c(C)c(OCC(=O)N3CCN(C)CC3)nn2-c2ccccc2)[C@H](c2ccc(F)c(F)c2)O1` (racemic) [Compound I-649] stands under 100 nM; under `CCN1C[C@@H](NC(=O)Nc2c(C)c(OCC(=O)NCCN(C)C)nn2-c2ccccc2)[C@H](c2ccc(F)c(F)c2)O1` (racemic) [Compound I-650], 100 to 1000 nM; under `CCN1C[C@@H](NC(=O)Nc2c(C)c(OCC(=O)NCCO)nn2-c2ccccc2)[C@H](c2ccc(F)c(F)c2)O1` (racemic) [Compound I-651], under 100 nM.

For `CCN1C[C@@H](NC(=O)Nc2c(C)c(OCC(=O)NCC(C)(C)O)nn2-c2ccccc2)[C@H](c2ccc(F)c(F)c2)O1` (racemic) [Compound I-652], the IC50 under setting [1] was under 100 nM. Still for that read-out and setting: the result for `Cc1c(OCC2CCN(C)CC2)nn(-c2ccccc2)c1NC(=O)N[C@@H]1CN(CC2CC2)O[C@H]1c1ccc(F)c(F)c1` (racemic) [Compound I-653] reads under 100 nM; that for `CCCN1C[C@@H](NC(=O)Nc2c(C)c(OCC3CCN(C)CC3)nn2-c2ccccc2)[C@H](c2ccc(F)c(F)c2)O1` (racemic) [Compound I-654], under 100 nM. On to `CCN1C[C@@H](NC(=O)Nc2c(C)c(C3=CCN(C(=O)CO)CC3)nn2-c2ccccc2)[C@H](c2ccc(F)c(F)c2)O1` (racemic) [Compound I-655], for which the IC50 under setting [2] turned out to be 5 nM. Consider `CCN1C[C@@H](NC(=O)Nc2c(C)c(OCC(C)(C)O)nn2-c2ccccc2)[C@H](c2ccc(F)c(F)c2)O1` (racemic) [Compound I-656], for which, under setting [1], the IC50 lay in the range of 100 to 1000 nM.

Take `CCN1C[C@@H](NC(=O)Nc2c(C)c(OCC3CNC3)nn2-c2ccccc2)[C@H](c2ccc(F)c(F)c2)O1` (racemic) [Compound I-657]: the IC50 under setting [1] was under 100 nM. For `CCN1C[C@@H](NC(=O)Nc2c(C)c(OCC3CN(C)C3)nn2-c2ccccc2)[C@H](c2ccc(F)c(F)c2)O1` (racemic) [Compound I-658], the IC50 under setting [1] was under 100 nM.

As for `CCN1C[C@@H](NC(=O)Nc2c(C)c(OCCCC(=O)NC)nn2-c2ccccc2)[C@H](c2ccc(F)c(F)c2)O1` (racemic) [Compound I-659], the IC50 under setting [1] was under 100 nM. Take `COCCN1C[C@@H](NC(=O)Nc2c(C(F)(F)F)c(C)nn2-c2ccccc2)[C@H](c2ccnc(F)c2)O1` (racemic) [Compound I-660]: the IC50 under setting [2] was 70 nM.

As to `CCN1C[C@@H](NC(=O)Nc2c(C)c(OCCCN3CCCC3)nn2-c2ccccc2)[C@H](c2ccc(F)c(F)c2)O1` (racemic) [Compound I-661], under setting [1], the half-maximal inhibitory concentration (IC50) is under 100 nM. Turning to `CCN1C[C@@H](NC(=O)Nc2c(C)c(OCCCCN(C)C)nn2-c2ccccc2)[C@H](c2ccc(F)c(F)c2)O1` (racemic) [Compound I-662], under setting [1], the IC50 is under 100 nM. The same measure, in the same setting: the result for `CCN1C[C@@H](NC(=O)Nc2c(C)c(OCCCC(N)=O)nn2-c2ccccc2)[C@H](c2ccc(F)c(F)c2)O1` (racemic) [Compound I-663] reads under 100 nM; that for `CCN1C[C@@H](NC(=O)Nc2c(C)c(OCCCC(=O)N(C)C)nn2-c2ccccc2)[C@H](c2ccc(F)c(F)c2)O1` (racemic) [Compound I-664], under 100 nM; that for `CCN1C[C@@H](NC(=O)Nc2c(C)c(OCCCC(=O)NC3CC3)nn2-c2ccccc2)[C@H](c2ccc(F)c(F)c2)O1` (racemic) [Compound I-665], under 100 nM. Same read-out and setting: under `CCN1C[C@@H](NC(=O)Nc2c(C)c(OCCCC(=O)N3CCN(C)CC3)nn2-c2ccccc2)[C@H](c2ccc(F)c(F)c2)O1` (racemic) [Compound I-666] stands under 100 nM; under `CCN1C[C@@H](NC(=O)Nc2c(C)c(OCCCC(=O)NCCN(C)C)nn2-c2ccccc2)[C@H](c2ccc(F)c(F)c2)O1` (racemic) [Compound I-667], under 100 nM. With `CCN1C[C@@H](NC(=O)Nc2c(C)c(OCCCC(=O)NCCO)nn2-c2ccccc2)[C@H](c2ccc(F)c(F)c2)O1` (racemic) [Compound I-668], under setting [1], the IC50 was under 100 nM.
